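Tested at 5 concentrations; 48 h exposure; 96-well plates; endpoints linearly interpolated, else capped at highest concentration. GI50: concentration for 50% inhibition of growth. The concentration for full growth arrest is given as TGI.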
What was measured:
Assay in all cases: growth of human tumour cells (NCI), 48 h
OVCAR-3 ovarian = system: OVCAR-3 ovarian
HCT-15 colon = system: HCT-15 colon
786-0 renal = system: 786-0 renal
NCI-H522 lung = system: NCI-H522 lung
SR leukemia = system: SR leukemia
A549 NSCLC = system: A549 NSCLC
TK-10 renal = system: TK-10 renal
PC-3 prostate = system: PC-3 prostate
HCT-116 colon = system: HCT-116 colon
KM12 colon = system: KM12 colon
COLO 205 colon = system: COLO 205 colon
IGROV1 ovarian = system: IGROV1 ovarian
SN12C renal = system: SN12C renal
SK-MEL-5 melanoma = system: SK-MEL-5 melanoma
UO-31 renal = system: UO-31 renal
RPMI-8226 leukemia = system: RPMI-8226 leukemia
U251 CNS = system: U251 CNS
NCI-H226 lung = system: NCI-H226 lung
K-562 leukemia = system: K-562 leukemia
NCI-H23 lung = system: NCI-H23 lung
HOP-92 NSCLC = system: HOP-92 NSCLC
UACC-257 melanoma = system: UACC-257 melanoma
SF-268 CNS = system: SF-268 CNS
HS 578T breast = system: HS 578T breast
T-47D breast = system: T-47D breast
NCI-H460 lung = system: NCI-H460 lung
UACC-62 melanoma = system: UACC-62 melanoma
MDA-MB-231 breast = system: MDA-MB-231 breast

Structure (SMILES): C/C=C/C/C=C/CCC(=O)[C@H]1O[C@H]1C(N)=O
- GI50 (OVCAR-3 ovarian): 13.9 µM
- TGI (OVCAR-3 ovarian): 27.4 µM
- GI50 (HCT-15 colon): 8.45 µM
- TGI (HCT-15 colon): 24.1 µM
- GI50 (786-0 renal): 14.8 µM
- TGI (786-0 renal): 36.1 µM
- TGI (NCI-H522 lung): 25.6 µM
- GI50 (SR leukemia): 12.6 µM
- TGI (SR leukemia): > 100 µM
- GI50 (A549 NSCLC): 17.3 µM
- TGI (A549 NSCLC): 51.3 µM
- GI50 (TK-10 renal): 16.5 µM
- TGI (TK-10 renal): 30.5 µM
- TGI (PC-3 prostate): 40.7 µM
- GI50 (HCT-116 colon): 8.15 µM
- TGI (HCT-116 colon): 22 µM
- GI50 (KM12 colon): 17.2 µM
- TGI (KM12 colon): 32 µM
- GI50 (COLO 205 colon): 15.3 µM
- TGI (COLO 205 colon): 31.5 µM
- GI50 (IGROV1 ovarian): 13.5 µM
- TGI (IGROV1 ovarian): 33.3 µM
- GI50 (SN12C renal): 11.5 µM
- TGI (SN12C renal): 25.3 µM
- GI50 (SK-MEL-5 melanoma): 12.5 µM
- TGI (SK-MEL-5 melanoma): 25.2 µM
- GI50 (UO-31 renal): 9.21 µM
- TGI (UO-31 renal): 22.9 µM
- GI50 (RPMI-8226 leukemia): 6.58 µM
- TGI (RPMI-8226 leukemia): 54.2 µM
- GI50 (U251 CNS): 14.5 µM
- TGI (U251 CNS): 28.3 µM
- GI50 (NCI-H226 lung): 15.1 µM
- TGI (NCI-H226 lung): 40.6 µM
- GI50 (K-562 leukemia): 19 µM
- TGI (K-562 leukemia): > 86.8 µM
- TGI (NCI-H23 lung): 29.9 µM
- GI50 (HOP-92 NSCLC): 10.8 µM
- TGI (HOP-92 NSCLC): 26.3 µM
- GI50 (UACC-257 melanoma): 13.1 µM
- TGI (UACC-257 melanoma): 27.3 µM
- TGI (SF-268 CNS): 39.3 µM
- GI50 (HS 578T breast): 15.9 µM
- TGI (HS 578T breast): > 100 µM
- GI50 (T-47D breast): 13.7 µM
- TGI (T-47D breast): 34 µM
- GI50 (NCI-H460 lung): 17 µM
- TGI (NCI-H460 lung): 39.4 µM
- GI50 (UACC-62 melanoma): 11.4 µM
- TGI (UACC-62 melanoma): 23.9 µM
- GI50 (MDA-MB-231 breast): 13.1 µM
- TGI (MDA-MB-231 breast): 26.8 µM
